Experimental data as given in PubChem BioAssay (NCI).
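Each compound was tested at five concentrations against cells in 96-well plates for 48 hours. At the GI50, growth is halved. TGI marks complete inhibition of growth.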

Key:
Assay in all cases: inhibition of tumour cell growth, NCI panel, 48 h
LOX IMVI melanoma = tested on: LOX IMVI melanoma
SK-MEL-28 melanoma = tested on: SK-MEL-28 melanoma
CAKI-1 renal = tested on: CAKI-1 renal
COLO 205 colon = tested on: COLO 205 colon
BT-549 breast = tested on: BT-549 breast
A549 NSCLC = tested on: A549 NSCLC
NCI-H226 lung = tested on: NCI-H226 lung
M14 melanoma = tested on: M14 melanoma
HOP-62 NSCLC = tested on: HOP-62 NSCLC
SR leukemia = tested on: SR leukemia

SMILES	GI50 (LOX IMVI melanoma) [µM]	TGI (LOX IMVI melanoma) [µM]	GI50 (SK-MEL-28 melanoma) [µM]	TGI (SK-MEL-28 melanoma) [µM]	GI50 (CAKI-1 renal) [µM]	TGI (CAKI-1 renal) [µM]	GI50 (COLO 205 colon) [µM]	TGI (COLO 205 colon) [µM]	GI50 (BT-549 breast) [µM]	TGI (BT-549 breast) [µM]	GI50 (A549 NSCLC) [µM]	TGI (A549 NSCLC) [µM]	GI50 (NCI-H226 lung) [µM]	TGI (NCI-H226 lung) [µM]	GI50 (M14 melanoma) [µM]	TGI (M14 melanoma) [µM]	GI50 (HOP-62 NSCLC) [µM]	TGI (HOP-62 NSCLC) [µM]	TGI (SR leukemia) [µM]	GI50 (SR leukemia) [µM]
Fc1ccc(-c2nn3c(COc4ccc(Cl)cc4Cl)nnc3s2)cc1Oc1ccccc1	14.6	29	15.8	42.9	12.8	25.4	19.6	> 100	19.3	43.8	20.7	62.2	21	74	23	67.2	11.5	23.7		
O=C(Nc1ccccc1)Nc1ccc(Cl)c(Cl)c1	2.51	16.3	4.55	> 100	2.71	24.7	3.04	11.1	4.99	85.9	3.04	> 100	3.06	> 100	4.64	> 100	5.84	> 100		
COC(=O)NC(=O)c1cn(C2CCCCC2)c(=O)[nH]c1=O		> 100		> 100		> 100		> 100				> 100		> 100		> 100		> 100	> 100	
COc1cccc(/C=C\c2ccnc3ccccc23)c1		> 10		> 10		> 10		> 10		> 10		> 10		> 10		> 10		> 10		
C#Cc1ccc(-n2c(/C=C/c3ccc4ccccc4c3)nc3ncccc3c2=O)cc1	0.517	3.11	4.33	> 100	2.98	> 100			1.98	5.45	2.73	> 100					7.45	> 100	> 100	1.4
COc1cc(/C=C/c2ccccn2)cc(OC)c1OC		> 10		> 10		> 10		> 10		> 10		> 10		> 10		> 10		> 10		
COc1ccc2c(c1)C(=O)c1c-2c(N2CCN(C(=O)CCNCCNCCO)CC2)nc2ccccc12	12.3	31.6	9.22	23.4	24	53.3	12.4	29.8	7.14	21.2	13.2	28	22.6	48.1	11.8	24.1				
CC1(C)CC(N2CCN(C3CC(C)(C)NC(C)(C)C3)CC2)CC(C)(C)N1		> 100		> 100		> 100						> 100				> 100		> 100	> 100	
C[C@H](c1ccccc1)N(CCC(=O)O)C(=O)CCN(C(=O)CCN(C(=O)CCN[C@H](C)c1ccccc1)[C@H](C)c1ccccc1)[C@H](C)c1ccccc1	> 100	> 100	> 100	> 100	> 100	> 100	> 100	> 100	> 100	> 100	> 100	> 100	> 100	> 100	> 100	> 100	> 100	> 100		
Cc1cc(N)cc(C)c1-c1c(Br)cc(N)cc1Br	6.14	20.7	5.21	33.7	3.07	31.2	2.39	4.88	7.51	30.4	4.71	56.5	9.43	> 100	2.65	8.76				
O=C(CSc1ncc(-c2ccccc2)n1-c1ccccc1)Nc1ccc(-c2nc3ccccc3s2)cc1	5.31	> 100			4.21	> 100	> 100	> 100					43.3	> 100			5.68	> 100		
COC(CC1(OC)OC(=O)C=C1N)OC (configuration not stated)		> 100		> 100				> 100				> 100		> 100		> 100		> 100	> 100	
CCCc1n(Cc2ccc3ccccc3n2)cc[n+]1Cc1ccc2ccccc2n1	2.43	10.9	1.52	15.8			0.633	2.21	1.3	8	7.73	> 100	3.26	26.2	2.29	13.5	4.17	17.9	12.7	0.635
COC(=O)C1=C(\O)C[C@@]2(C)CC[C@@H](C(=O)OC)C2C/C=C\1C(=O)OC (some centres not stated)		> 100		> 100		> 100		> 100				> 100		> 100		> 100		> 100	> 100	
N#CC1C(=O)NC(=O)C1=O (configuration not stated)		> 100		> 100		> 100		> 100						> 100		> 100		> 100		
CCCCCCCCCCCC(=O)OC(COC(N)=O)COc1ccc(Cl)cc1 (configuration not stated)		55		36.2		44.3		37.5				36.8		46.1		35		> 100		
COc1cc(-c2nn(-c3cccc(NC(=O)CCN4CCN(C)CC4)c3)cc2-c2ccncc2)ccc1Cl	0.922	2.22	1.48	2.99			1.09	2.47	7.26	20.4	1.4	4.9	3.67	22.3	1.09	2.71	1.36	4.38	2.64	0.471
